Experimental data taken from patent US11492374B2 (priority 2020, dated 2022).

Legend:
[1] = target: recombinant human mu opioid receptor (MOR) (Homo sapiens (Human), UniProt P35372); assay: Opioid receptor radioligand binding assay, MOR ([3H]DAMGO); details: membranes of HEK293 cells expressing recombinant human MOR; 0.5 nM [3H]DAMGO
[2] = target: recombinant human kappa opioid receptor (KOR) (Homo sapiens (Human), UniProt P41145); format: binding

SMILES: CC(C)C[C@@H](NC(=O)[C@@H](Cc1ccccc1)NC(=O)[C@H](N)[C@H](C)c1ccccc1)C(=O)N[C@H](CCCCN)C(=O)N1CCC(N)(C(=O)O)CC1 [Compound 18]
- IC50 [1]: 9.81 µM
- IC50 [2]: 0.000253 µM
- δ/k [2]: >39603
- μ/k [2]: 38855
